# Laboratory results as given in patent publication US10286022B2, “Medicinal composition of extract of seed of emblica officinalis and method of preparing the same” (priority 2013, dated 2019).
# Experiments:
# [1] = tested on: Triton WR 1339 induced dyslipidemia in Albino rats (Sprague Dawley strain); assay: Hypolipidemic activity in different doses, Triton WR 1339 induced dyslipidemia model (Example 19); assay type: in vivo, rat
# Description: Sixty male Albino rats (Sprague Dawley strain) weighing approximate 250-300 gm were selected for the study. The animals were kept in the animal house maintained at temp 24±2° C., 65% relative humidity and 12 hr light/dark cycle. The rats were acclimatized for two weeks and during this period they had access to standard pellet diet and water ad libitum. After two weeks of acclimatization, all the rats were fasted overnight before injecting Triton WR 1339 (Tyloxapol) and administration of test extracts/standard. The animals were divided into ten groups. Following treatment was given to overnight fasted rats: • Group I: Normal control (vehicle only). • Group II: Triton WR 1339 (300 mg/kg, intraperitoneal). • Group III: Triton WR 1339 (300 mg/kg, intraperitoneal) followed by amla seed extract prepare as per example 1 (10 mg/kg, per oral). • Group IV: Triton WR 1339 (300 mg/kg, intraperitoneal) followed by amla seed extract prepare as per example 1 (7.5 mg/kg, per oral). • Group V: Triton WR 1339 (300 mg/kg, intraperitoneal) followed by amla seed extract prepare as per example 1 (5 mg/kg, per oral). • Group VI: Triton WR 1339 (300 mg/kg, intraperitoneal) followed by amla seed extract prepare as per example 1 (2.5 mg/kg, per oral). • Group VII: Triton WR 1339 (300 mg/kg, intraperitoneal) followed by amla seed extract prepare as per example 1 (2 mg/kg, per oral). • Group VIII: Triton WR 1339 (300 mg/kg, intraperitoneal) followed by amla seed extract prepare as per example 1 (1 mg/kg, per oral). • Group IX: Triton WR 1339 (300 mg/kg, intraperitoneal) followed by amla seed extract prepare as per example 1 (0.5 mg/kg, per oral). • Group X: Triton WR 1339 (300 mg/kg, intraperitoneal) followed by atorvastatin (10 mg/kg. per oral).
# (§1) The animals were deprived of food for next 24 hours but had free access to water ad libitum. After 24 hour of drug treatment 2 ml blood samples were collected from the retro orbital plexus. The blood was allowed to clot and then centrifuged at 3000 rpm for 10 min and the serum was carefully drawn and collected into separate tubes. The serum was analyzed for total cholesterol, triglycerides, high density lipoproteins (HDL), low density lipoproteins (LDL) and very low density lipoproteins (VLDL) levels using auto-analyzer.
# [2] = tested on: Triton WR 1339 induced dyslipidemia in Albino rats (Sprague Dawley strain); assay: Hypolipidemic activity compared with other amla extracts, Triton WR 1339 model (Example 25); assay type: in vivo, rat
# Description: Forty eight male Albino rats (Sprague Dawley strain) weighing approximate 250-300 gm were selected for the study. The animals were kept in the animal house maintained at temp 24±2° C., 65% relative humidity and 12 hr light/dark cycle. The rats were acclimatized for two weeks and during this period they had access to standard pellet diet and water ad libitum. After two weeks of acclimatization, all the rats were fasted overnight before injecting Triton WR 1339 (Tyloxapol) and administration of test extracts/standard. The animals were divided into twelve groups. Following treatment was given to overnight fasted rats: • Group I: Normal control (vehicle only). • Group II: Triton WR 1339 (300 mg/kg, intraperitoneal). • Group III: Triton WR 1339 (300 mg/kg, intraperitoneal) followed by ethyl acetate of methanol extract of amla seed prepared as per example 1 (2.5 mg/kg, per oral). • Group IV: Triton WR 1339 (300 mg/kg, intraperitoneal) followed by water part of methanol extract of amla seed prepared as per example 1 (2.5 mg/kg, per oral). • Group V: Triton WR 1339 (300 mg/kg, intraperitoneal) followed by ethyl acetate extract of amla seed prepared as per example 2 (2.5 mg/kg, per oral). • Group VI: Triton WR 1339 (300 mg/kg, intraperitoneal) followed by powder of dried amla seed prepared as per example 7 (2.5 mg/kg, per oral). • Group VII: Triton WR 1339 (300 mg/kg, intraperitoneal) followed by water extract of dried amla seed powder prepared as per example 8 (2.5 mg/kg, per oral). • Group VIII: Triton WR 1339 (300 mg/kg, intraperitoneal) followed by methanol extract of dried amla seed powder prepared as per example 9 (2.5 mg/kg, per oral). • Group IX: Triton WR 1339 (300 mg/kg, intraperitoneal) followed by powder of dried amla fruit prepared as per example 10 (2.5 mg/kg, per oral). • Group X: Triton WR 1339 (300 mg/kg, intraperitoneal) followed by water extract of dried Amla fruit powder prepared as per example 11 (2.5 mg/kg, per oral). • Group XI: Triton WR 1339 (300 mg/kg, intraperitoneal) followed by methanol extract of dried amla fruit powder prepared as per example 12 (2.5 mg/kg, per oral). • Group XII: Triton WR 1339 (300 mg/kg, intraperitoneal) followed by atorvastatin (2.5 mg/kg, per oral).
# as §1
# [3] = 24 h after Triton i.p. + 10 mg/kg p.o.
# [4] = 24 h after Triton i.p. + 2.5 mg/kg p.o.
smiles,measurement,setting,value
CC(C)c1c(C(=O)Nc2ccccc2)c(-c2ccccc2)c(-c2ccc(F)cc2)n1CC[C@@H](O)C[C@@H](O)CC(=O)O [Atorvastatin],HDL After,[1]; [3],39.83 mg/dL
same,LDL After,[1]; [3],60.23 mg/dL
same,TC After,[1]; [3],120.83 mg/dL
same,TG After,[1]; [3],103.86 mg/dL
same,VLDL After,[1]; [3],20.77 mg/dL
same,effect on cholesterol and triglyceride level,"[1]; amla seed extract 0.5 to 10 mg/kg p.o., atorvastatin 10 mg/kg p.o.",effective in lowering the cholesterol as well as triglyceride level
same,HDL Before,"[1]; baseline, 10 mg/kg p.o. group",31.66 mg/dL
same,LDL Before,"[1]; baseline, 10 mg/kg p.o. group",47.75 mg/dL
same,TC Before,"[1]; baseline, 10 mg/kg p.o. group",87.43 mg/dL
same,TG Before,"[1]; baseline, 10 mg/kg p.o. group",39.9 mg/dL
same,VLDL Before,"[1]; baseline, 10 mg/kg p.o. group",7.98 mg/dL
same,effect on cholesterol and triglyceride levels,[2]; 2.5 mg/kg p.o.,effective in lowering the cholesterol as well as triglyceride levels
same,HDL After,[2]; [4],39.56 mg/dL
same,LDL After,[2]; [4],44.53 mg/dL
same,TC After,[2]; [4],123.14 mg/dL
same,TG After,[2]; [4],195.25 mg/dL
same,VLDL After,[2]; [4],39.05 mg/dL
same,HDL Before,"[2]; baseline, 2.5 mg/kg p.o. group",36.54 mg/dL
same,LDL Before,"[2]; baseline, 2.5 mg/kg p.o. group",57.99 mg/dL
same,TC Before,"[2]; baseline, 2.5 mg/kg p.o. group",104.44 mg/dL
same,TG Before,"[2]; baseline, 2.5 mg/kg p.o. group",49.54 mg/dL
same,VLDL Before,"[2]; baseline, 2.5 mg/kg p.o. group",9.91 mg/dL
